Data published in patent US9416128B2, “Fused heterocyclic compounds as ion channel modulators” (Gilead Sciences, Inc., priority 2013, dated 2016).

Key:
hNaV1.1 (SCN1A) = hNaV1.1 (SCN1A) (Homo sapiens, UniProt P35498); assay: Use-dependent inhibition of the CNS NaV1.1 sodium channel; format: cell-based; details: % inhibition, 25 Hz; for inhibition at 1 µM: use-dependent block at 1 uM, read-out: Nav1.1 UDB 25 Hz 1 uM; for inhibition at 10 µM: use-dependent block at 10 uM, read-out: Nav1.1 UDB 25 Hz 10 uM
Summary of the method: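 Whole-cell automated patch clamp on HEK-293 cells stably expressing hNaV1.1, 23-25° C., CsF internal solution. Peak current at pulse 20 of a 25 Hz train (0 mV, 20 ms) from −120 mV, normalized to pulse 1; percentage inhibition versus compound-free condition.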

hNaV1.2 (SCN2A) = target: T1, hNaV1.2 (SCN2A) (Homo sapiens, UniProt Q99250); assay: Use-dependent inhibition of the CNS NaV1.2 sodium channel; format: cell-based; details: HEK-293, % inhibition, 25 Hz; for inhibition at 1 µM: use-dependent block at 1 uM, read-out: Nav1.2 UDB 25 Hz 1 uM; for inhibition at 10 µM: use-dependent block at 10 uM, read-out: Nav1.2 UDB 25 Hz 10 uM
T1 construct: expressed in transfected cells
T1 sequence (Q99250 whole entry): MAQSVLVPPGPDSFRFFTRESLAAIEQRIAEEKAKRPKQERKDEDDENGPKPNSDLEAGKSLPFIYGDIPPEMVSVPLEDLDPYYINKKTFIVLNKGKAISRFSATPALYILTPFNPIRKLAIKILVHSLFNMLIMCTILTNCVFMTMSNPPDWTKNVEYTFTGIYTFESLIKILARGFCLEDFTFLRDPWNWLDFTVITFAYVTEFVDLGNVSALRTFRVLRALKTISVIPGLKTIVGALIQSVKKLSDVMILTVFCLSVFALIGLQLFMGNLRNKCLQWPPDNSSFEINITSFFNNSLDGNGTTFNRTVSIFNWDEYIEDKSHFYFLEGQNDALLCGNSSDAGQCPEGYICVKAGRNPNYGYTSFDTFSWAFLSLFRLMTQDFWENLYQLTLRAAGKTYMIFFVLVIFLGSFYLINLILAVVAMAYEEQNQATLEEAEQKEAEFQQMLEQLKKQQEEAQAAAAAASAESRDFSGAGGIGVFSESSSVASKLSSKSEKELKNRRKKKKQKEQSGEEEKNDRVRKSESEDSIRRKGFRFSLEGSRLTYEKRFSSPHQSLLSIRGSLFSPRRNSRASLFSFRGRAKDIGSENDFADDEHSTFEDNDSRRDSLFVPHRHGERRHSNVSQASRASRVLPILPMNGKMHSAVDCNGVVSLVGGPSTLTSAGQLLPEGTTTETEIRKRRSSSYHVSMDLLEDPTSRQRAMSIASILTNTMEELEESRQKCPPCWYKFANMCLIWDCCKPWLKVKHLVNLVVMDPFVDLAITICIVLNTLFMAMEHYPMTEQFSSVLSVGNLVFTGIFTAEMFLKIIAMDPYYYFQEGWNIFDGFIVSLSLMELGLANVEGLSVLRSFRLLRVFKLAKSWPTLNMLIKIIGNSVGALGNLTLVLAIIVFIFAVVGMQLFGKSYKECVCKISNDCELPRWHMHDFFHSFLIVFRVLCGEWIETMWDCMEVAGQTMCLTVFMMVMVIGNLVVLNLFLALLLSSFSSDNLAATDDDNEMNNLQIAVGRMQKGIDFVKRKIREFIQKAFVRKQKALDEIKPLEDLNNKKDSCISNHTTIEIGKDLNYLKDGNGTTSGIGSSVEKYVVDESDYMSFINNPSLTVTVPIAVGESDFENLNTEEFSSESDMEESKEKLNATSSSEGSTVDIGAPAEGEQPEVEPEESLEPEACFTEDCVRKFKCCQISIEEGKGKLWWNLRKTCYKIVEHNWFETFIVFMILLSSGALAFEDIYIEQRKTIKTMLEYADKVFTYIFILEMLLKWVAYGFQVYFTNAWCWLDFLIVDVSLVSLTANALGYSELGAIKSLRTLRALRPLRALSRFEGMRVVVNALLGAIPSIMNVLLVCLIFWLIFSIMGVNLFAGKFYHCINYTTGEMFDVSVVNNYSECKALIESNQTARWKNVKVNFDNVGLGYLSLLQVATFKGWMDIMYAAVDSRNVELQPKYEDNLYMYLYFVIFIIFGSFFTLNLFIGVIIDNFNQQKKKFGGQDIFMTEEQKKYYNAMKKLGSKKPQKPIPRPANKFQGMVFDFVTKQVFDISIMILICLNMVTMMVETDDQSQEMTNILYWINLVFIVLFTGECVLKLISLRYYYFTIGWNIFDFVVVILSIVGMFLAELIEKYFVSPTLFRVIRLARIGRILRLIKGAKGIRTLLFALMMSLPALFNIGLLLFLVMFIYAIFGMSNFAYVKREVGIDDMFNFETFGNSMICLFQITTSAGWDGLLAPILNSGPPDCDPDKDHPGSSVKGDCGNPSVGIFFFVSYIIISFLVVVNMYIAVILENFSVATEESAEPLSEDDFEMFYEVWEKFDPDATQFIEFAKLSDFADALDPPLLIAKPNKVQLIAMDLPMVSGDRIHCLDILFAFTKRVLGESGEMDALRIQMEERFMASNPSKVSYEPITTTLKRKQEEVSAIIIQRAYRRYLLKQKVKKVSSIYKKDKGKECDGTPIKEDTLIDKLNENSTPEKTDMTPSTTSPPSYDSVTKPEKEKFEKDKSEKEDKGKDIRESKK
T1 sequence (Q07699 19-218 partner): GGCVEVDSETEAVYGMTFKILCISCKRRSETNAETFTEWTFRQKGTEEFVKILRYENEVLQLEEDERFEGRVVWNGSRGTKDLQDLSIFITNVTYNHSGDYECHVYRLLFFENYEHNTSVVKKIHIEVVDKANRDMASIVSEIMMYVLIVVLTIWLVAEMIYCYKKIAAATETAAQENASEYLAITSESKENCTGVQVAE
T1 sequence (O60939 30-215 partner): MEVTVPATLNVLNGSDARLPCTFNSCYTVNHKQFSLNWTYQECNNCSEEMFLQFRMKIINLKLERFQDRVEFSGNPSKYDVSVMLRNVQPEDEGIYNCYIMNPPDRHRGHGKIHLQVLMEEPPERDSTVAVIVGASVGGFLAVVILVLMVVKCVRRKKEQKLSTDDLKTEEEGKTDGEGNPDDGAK
Experimental: HEK-293 cells stably expressing wild-type (WT) hNaV1.2 (SCN2A NCBI # NM_021007.2, SCN1B NCBI # NM_001037.4, SCN2B NCBI # NM_004588.2) were used to record INa. Cells are maintained with standard tissue culture procedures and stable channel expression is maintained with 800 ug/mL G418 and 3 ug/mL Puromycin in the culture medium. Unless otherwise noted, all reagents are purchased from Sigma-Aldrich (St Louis, Mo., U.S.A.).
Assays measuring Use-Dependent Block (UDB) of NaV1.2 are performed on an automated electrophysiology platform, QPatch 16X or QPatch HT (Sophion Bioscience, Copenhagen, Denmark), using the whole cell patch clamp technique to measure currents through the cell membrane. Series resistance compensation is set to 100% and series resistance and whole-cell compensation are performed automatically. Currents stored in the Sophion Bioscience Oracle database (Sophion Bioscience, Copenhagen, Denmark). Analysis is performed using QPatch Assay software and data are compiled in Excel 2010 (Microsoft, Seattle, Wash., U.S.A.). The internal (pipette) solution consists of (in mM) 105 CsF, 10 NaF, 20 CsCl, 2 EGTA, 10 HEPES, 10 Dextrose with a pH of 7.35 and osmolarity of 300 mOsmol/kg. The external (bath) solution contains in (mM): 145 NaCl, 4 KCl, 1.8 CaCl2, 1 MgCl2, 10 dextrose, 10 HEPES, with a pH of 7.35 and osmolarity of 310 mOsmol/kg. Experiments are carried out at 23-25° C.
Compound stocks are routinely made by the Gilead Sample Bank in vials to 10 mM in dimethyl sulfoxide (DMSO). In some cases, when compounds are not soluble in DMSO, they are made in 100% ethanol. Stocks are sonicated as necessary. […]
Cells are allowed to stabilize for 10 min after establishment of the whole-cell configuration before current is measured. The test compound is applied 2 times at 60 second intervals. After the second compound addition, a 200 second wait period was imposed to allow for equilibration. Leak currents are subtracted by using an online P/4 procedure and all currents are low-pass Bessel filtered at 5 kHz and digitized at […].
Results are presented as mean percentage inhibition.
Use-dependent block of NaV1.2 peak current is measured during pulse number 20 of a voltage pulse train (0 mV, 20 ms, 20 pulses, 25 Hz) from a holding potential of −120 mV.
Currents are normalized to the peak current recorded in response to the first pulse in each frequency train. The voltage protocol for UDB was performed in the absence and presence of compound and percentage inhibition was calculated with respect to the compound free condition.
Data analysis is performed using QPatch Assay Software 4.0, and Excel 2002 (Microsoft, Seattle, Wash., U.S.A.).

| SMILES | inhibition at 1 µM (hNaV1.1 (SCN1A)) | inhibition at 10 µM (hNaV1.1 (SCN1A)) | inhibition at 1 µM (hNaV1.2 (SCN2A)) | inhibition at 10 µM (hNaV1.2 (SCN2A)) |
| --- | --- | --- | --- | --- |
| O=C1Oc2ccc(-c3ccc4c(c3)OC(F)(F)O4)cc2CN1Cc1ncccn1 [Example 26, 6-(2,2-difluorobenzo[d][1,3]dioxol-5-yl)-3-(pyrimidin-2-ylmethyl)-3,4-dihydro-2H-benzo[e][1,3]oxazin-2-one] | 14.8% | 66.1% | 28% | 71.1% |
| COc1cc(OC(F)(F)F)ccc1-c1ccc2c(c1)CN(Cc1nccc(C)n1)C(=O)O2 [Example 31, 6-(2-methoxy-4-(trifluoromethoxy)phenyl)-3-((4-methylpyrimidin-2-yl)methyl)-3,4-dihydro-2H-benzo[e][1,3]oxazin-2-one] | 6% | 53.3% | 13.2% | 45.7% |
| O=C1Oc2ccc(-c3ccc(OC(F)(F)F)cc3F)cc2CN1Cc1ccccn1 [Example 21, 6-(2-fluoro-4-(trifluoromethoxy)phenyl)-3-(pyridin-2-ylmethyl)-3,4-dihydro-2H-benzo[e][1,3]oxazin-2-one] | < 5% | 50.8% | < 5% | 59.4% |
| O=C1Oc2ccc(-c3ccc(C4(C(F)(F)F)CC4)cc3)cc2CN1Cc1ncccn1 [Example 38, 3-(pyrimidin-2-ylmethyl)-6-(4-(1-(trifluoromethyl)cyclopropyl)phenyl)-3,4-dihydro-2H-benzo[e][1,3]oxazin-2-one] | 49% | 78.1% | 34.1% | 71.8% |
| Cc1ccnc(CN2Cc3cc(-c4ccc(OC(F)(F)F)cc4F)ccc3OC2=O)n1 [Example 32, 6-(2-fluoro-4-(trifluoromethoxy)phenyl)-3-((4-methylpyrimidin-2-yl)methyl)-3,4-dihydro-2H-benzo[e][1,3]oxazin-2-one] | 10.8% | 61.8% | 8.1% | 41% |
| Cc1cnc(CN2Cc3cc(-c4ccc(C(F)(F)F)cc4F)ccc3OC2=O)nc1 [Example 41, 6-(2-fluoro-4-(trifluoromethyl)phenyl)-3-((5-methylpyrimidin-2-yl)methyl)-3,4-dihydro-2H-benzo[e][1,3]oxazin-2-one] | < 5% | 29% | 7.1% | 36.2% |
| CCOc1cc(C(F)(F)F)ccc1-c1ccc2c(c1)CN(Cc1ncccn1)C(=O)O2 [Example 35, 6-(2-ethoxy-4-(trifluoromethyl)phenyl)-3-(pyrimidin-2-ylmethyl)-3,4-dihydro-2H-benzo[e][1,3]oxazin-2-one] | 37.6% | 80.4% | 39.3% | 75.1% |
| O=C1Oc2ccc(-c3ccc(C(F)(F)F)cc3F)cc2CN1Cc1ncccn1 [Example 36, 6-(2-fluoro-4-(trifluoromethyl)phenyl)-3-(pyrimidin-2-ylmethyl)-3,4-dihydro-2H-benzo[e][1,3]oxazin-2-one] | 22.8% | 68.7% | 19.1% | 55.9% |
| COc1cc(OC(F)(F)F)ccc1-c1ccc2c(c1)CN(Cc1ccccn1)C(=O)O2 [Example 22, 6-(2-methoxy-4-(trifluoromethoxy)phenyl)-3-(pyridin-2-ylmethyl)-3,4-dihydro-2H-benzo[e][1,3]oxazin-2-one] | < 5% | 56.3% | < 5% | 55.6% |
| O=C1Oc2ccc(-c3ccc(OC(F)(F)F)cc3)cc2CN1CCc1ncccn1 [Example 16, 3-(2-(pyrimidin-2-yl)ethyl)-6-(4-(trifluoromethoxy)phenyl)-3,4-dihydro-2H-benzo[e][1,3]oxazin-2-one] | 17.3% | 52.2% | 23.4% | 52.9% |
| CCCOc1cc(C(F)(F)F)ccc1-c1ccc2c(c1)CN(CCc1ncccn1)C(=O)O2 [Example 19, 6-(2-propoxy-4-(trifluoromethyl)phenyl)-3-(2-(pyrimidin-2-yl)ethyl)-3,4-dihydro-2H-benzo[e][1,3]oxazin-2-one] | 30.8% | 78.4% | 30.6% | 64% |
| Cc1csc(CN2Cc3cc(-c4ccc(OC(F)(F)F)c(F)c4)ccc3OC2=O)n1 [Example 53, 6-(3-fluoro-4-(trifluoromethoxy)phenyl)-3-((4-methylthiazol-2-yl)methyl)-3,4-dihydro-2H-benzo[e][1,3]oxazin-2-one] | 52.7% | 87.6% | 32.3% | 73.6% |
| COc1cc(C(F)(F)F)ccc1-c1ccc2c(c1)CN(Cc1cccc(C)n1)C(=O)O2 [Example 44, 6-(2-methoxy-4-(trifluoromethyl)phenyl)-3-((6-methylpyridin-2-yl)methyl)-3,4-dihydro-2H-benzo[e][1,3]oxazin-2-one] | 25% | 84.5% | 20.9% | 68.4% |
| CC(C)Oc1cc(OC(F)(F)F)ccc1-c1ccc2c(c1)CN(Cc1ncccn1)C(=O)O2 [Example 39, 6-(2-isopropoxy-4-(trifluoromethoxy)phenyl)-3-(pyrimidin-2-ylmethyl)-3,4-dihydro-2H-benzo[e][1,3]oxazin-2-one] | 39.1% | 73.4% | 16% | 59.3% |
| Cc1cc(C(F)(F)F)ccc1-c1ccc2c(c1)CN(Cc1ncccn1)C(=O)O2 [Example 37, 6-(2-methyl-4-(trifluoromethyl)phenyl)-3-(pyrimidin-2-ylmethyl)-3,4-dihydro-2H-benzo[e][1,3]oxazin-2-one] | 7.3% | 67.7% | 7.8% | 27.1% |
| Cc1cc(OC(F)(F)F)ccc1-c1ccc2c(c1)CN(Cc1ncccn1)C(=O)O2 [Example 8, 6-(2-methyl-4-(trifluoromethoxy)phenyl)-3-(pyrimidin-2-ylmethyl)-3,4-dihydro-2H-benzo[e][1,3]oxazin-2-one] | < 5% | 11.6% | < 5% | 11% |
| CCCOc1cc(OC(F)(F)F)ccc1-c1ccc2c(c1)CN(Cc1ncccn1)C(=O)O2 [Example 28, 6-(2-propoxy-4-(trifluoromethoxy)phenyl)-3-(pyrimidin-2-ylmethyl)-3,4-dihydro-2H-benzo[e][1,3]oxazin-2-one] | 25.2% | 67.4% | 17.1% | 58% |
| Cc1cc(OC(F)(F)F)ccc1-c1ccc2c(c1)CN(Cc1ccccn1)C(=O)O2 [Example 23, 6-(2-methyl-4-(trifluoromethoxy)phenyl)-3-(pyridin-2-ylmethyl)-3,4-dihydro-2H-benzo[e][1,3]oxazin-2-one] | 5.2% | 75.2% | < 5% | 56% |
| Cc1csc(CN2Cc3cc(-c4ccc(OC(F)(F)F)c(C)c4)ccc3OC2=O)n1 [Example 54, 6-(3-methyl-4-(trifluoromethoxy)phenyl)-3-((4-methylthiazol-2-yl)methyl)-3,4-dihydro-2H-benzo[e][1,3]oxazin-2-one] | < 5% | 36.7% | 6.1% | 43.5% |
| O=C1Oc2ccc(-c3ccc(C(F)(F)F)cc3)cc2CN1CCc1ncccn1 [Example 17, 3-(2-(pyrimidin-2-yl)ethyl)-6-(4-(trifluoromethyl)phenyl)-3,4-dihydro-2H-benzo[e][1,3]oxazin-2-one] | 34.8% | 60.9% | 34.2% | 56.6% |
